Laboratory results taken from PubChem BioAssay (NCI).
“And” between values parts separate entries of the source, which are not always exact repeats. Equal values may be shown once.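 These data come from cells grown in 96-well plates and exposed to compound for 48 hours at five concentrations. The concentration for 50% growth inhibition is given as GI50. At the TGI there is no net growth.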

Tests used:
Experiment in all cases: NCI anticancer screen, dose series, 48 h
RPMI-8226 leukemia = tested on: RPMI-8226 leukemia
ACHN renal = tested on: ACHN renal
SK-MEL-5 melanoma = tested on: SK-MEL-5 melanoma
CAKI-1 renal = tested on: CAKI-1 renal
SF-268 CNS = tested on: SF-268 CNS
M19-MEL melanoma = tested on: M19-MEL melanoma
OVCAR-5 ovarian = tested on: OVCAR-5 ovarian
DMS 114 small cell lung = tested on: DMS 114 small cell lung
HS 578T breast = tested on: HS 578T breast
BT-549 breast = tested on: BT-549 breast

| SMILES | TGI (RPMI-8226 leukemia) | TGI (ACHN renal) | TGI (SK-MEL-5 melanoma) | TGI (CAKI-1 renal) | TGI (SF-268 CNS) | TGI (M19-MEL melanoma) | TGI (OVCAR-5 ovarian) | TGI (DMS 114 small cell lung) | TGI (HS 578T breast) | TGI (BT-549 breast) | GI50 (HS 578T breast) | GI50 (ACHN renal) | GI50 (BT-549 breast) | GI50 (M19-MEL melanoma) | GI50 (RPMI-8226 leukemia) | GI50 (SK-MEL-5 melanoma) | GI50 (SF-268 CNS) | GI50 (CAKI-1 renal) | GI50 (OVCAR-5 ovarian) |
| --- | --- | --- | --- | --- | --- | --- | --- | --- | --- | --- | --- | --- | --- | --- | --- | --- | --- | --- | --- |
| CN(C)NC(=O)NC12CC3CC(CC(C3)C1)C2 | > 100 µM | > 100 µM | > 100 µM | > 100 µM | > 100 µM | > 100 µM | > 100 µM | – | – | – | – | – | – | – | – | – | – | – | – |
| CC(=O)O[C@H]1CSC[C@@H](OC(C)=O)C1[N+](=O)[O-] (some centres not stated) | 59.5 µM | > 100 µM | > 100 µM | > 100 µM | > 100 µM | > 100 µM | > 100 µM | > 100 µM | – | – | – | – | – | – | – | – | – | – | – |
| O=C1c2ccccc2C(=O)c2c1ccc1c3ccccc3n(-c3ccccc3)c21 | 25.8 µM | 41.2 µM | 29.9 µM | 35.1 µM | 54 µM | 38.6 µM | 47 µM | – | 42.7 µM | 51.3 µM | – | – | – | – | – | – | – | – | – |
| CCOC(=O)C(Oc1ccc(OC)c2c1C(=O)CCC2)c1ccccc1 (configuration not stated) | > 100 µM | > 100 µM | > 100 µM | > 100 µM | > 100 µM | > 100 µM | > 100 µM | > 100 µM | – | – | – | – | – | – | – | – | – | – | – |
| C=C1C(=O)C23C(O)CC4C(C)(C)CCC(O)C4(C)C2CC(OC(C)=O)C1[C@H]3O (some centres not stated) | > 32 µM | 8.94 µM | – | 9.39 µM | 22.1 µM | 3.22 µM | 21.5 µM | – | 53.7 µM | – | – | – | – | – | – | – | – | – | – |
| CCN(CC)c1ccc(N=Nc2ccc(-c3nc4cccnc4s3)cc2)cc1 | > 100 µM | > 100 µM | > 100 µM | > 100 µM | > 100 µM | – | > 100 µM | > 100 µM | – | – | – | – | – | – | – | – | – | – | – |
| NN=C1/C(=C\c2ccccc2)CCC/C1=C/c1ccccc1 | 38 µM | > 100 µM | – | – | > 100 µM | > 100 µM | > 100 µM | 75.1 µM | – | – | – | – | – | – | – | – | – | – | – |
| CN(C(=O)C12C3C4C1C1C2C3C41C#N)C(C)(C)C (configuration not stated) | > 100 µM | > 100 µM | > 100 µM | > 100 µM | > 100 µM | > 100 µM | > 100 µM | > 100 µM | – | – | – | – | – | – | – | – | – | – | – |
| O=C1CCNC/C1=C\c1ccccc1 | 83.6 µM | 78 µM | 40.2 µM | > 100 µM | 45 µM | 39.3 µM | 81.3 µM | 73.4 µM | – | – | – | – | – | – | – | – | – | – | – |
| Nc1ncc(CN2CCCC2)c(-c2ccccc2O)n1 | > 750 µM | > 750 µM | > 750 µM | > 750 µM | > 750 µM | > 750 µM | > 750 µM | > 750 µM | – | – | – | – | – | – | – | – | – | – | – |
| CC1=Nc2ccccc2S/C1=C1/C=NC(=NC#N)N=C1C(=O)Nc1cccc(Cl)c1 | > 100 µM | > 100 µM | > 100 µM | > 100 µM | > 100 µM | > 100 µM | > 100 µM | > 100 µM | – | – | – | – | – | – | – | – | – | – | – |
| O=C(CC1(O)C(=O)Nc2ccccc21)c1cccc(O)c1 (configuration not stated) | > 100 µM | > 100 µM | > 100 µM | > 100 µM | > 100 µM | > 100 µM | > 100 µM | > 100 µM | – | – | – | – | – | – | – | – | – | – | – |
| N#C/C(=C/c1ccc([N+](=O)[O-])o1)c1ccccc1 | > 100 µM | > 100 µM | > 100 µM | > 100 µM | > 100 µM | > 100 µM | > 100 µM | > 100 µM | – | – | – | – | – | – | – | – | – | – | – |
| CCn1c(=O)nc2n(-c3ccc(SC)cc3)c3ccccc3nc-2c1=O | > 100 µM | > 100 µM | > 100 µM | > 100 µM | > 100 µM | > 100 µM | > 100 µM | > 100 µM | – | – | – | – | – | – | – | – | – | – | – |
| COc1cccc(NC(=O)/C(CS(=O)(=O)CCC(C(C)=O)C(C)=O)=N\NC(C)(C)C)c1 | > 100 µM | > 100 µM | > 100 µM | > 100 µM | > 100 µM | – | > 100 µM | > 100 µM | – | – | – | – | – | – | – | – | – | – | – |
| CC1OC(O[C@@H]2C=C3CC[C@@H]4[C@H](CC[C@]5(C)[C@@H](c6ccc(=O)oc6)CC[C@]45O)[C@@]3(C)CC2)C(O)C(O)C1O (some centres not stated) | – | 0.003 µM and 0.000431 µM | 0.003 µM and 0.0122 µM | 0.000992 µM | 0.00353 µM | – | 0.0115 µM and 0.0318 µM | – | 0.003 µM | – | 0.00326 µM | 0.00478 µM | 0.00615 µM | 0.00173 µM | – | – | – | – | – |
| CCNC(=O)O/N=C1\CCC2[C@@H]3CC=C4C[C@@H](OC(=O)NCC)CC[C@]4(C)C3CC[C@]12C (some centres not stated) | 5.69 µM | 4.96 µM | 10.4 µM | – | 13 µM | 4.79 µM | 17.1 µM | 1.82 µM | – | – | – | – | – | – | – | – | – | – | – |
| CC(=O)OC1(C(C)=O)CC2(c3ccccc3)OC1(c1ccccc1)c1ccccc12 (configuration not stated) | 96.8 µM | > 100 µM | 8.53 µM | – | > 100 µM | 80.4 µM | > 100 µM | 12.5 µM | – | – | – | – | – | – | – | – | – | – | – |
| COc1oc(C2C/C(=C/C(C)=C/C(C)=C/C(C)=C/c3ccc([N+](=O)[O-])cc3)CO2)c(C)c(=O)c1C (configuration not stated) | 20.9 µM | 6.58 µM | 3.61 µM | 30.9 µM | 42.6 µM | – | > 100 µM | – | > 31.6 µM | 17.4 µM | – | – | – | – | – | – | – | – | – |
| O=C1c2c(c3c4ccccc4n(CC4CO4)c3c3[nH]c4ccccc4c23)C(=O)N1Cc1ccccc1 (configuration not stated) | > 100 µM | – | – | > 100 µM | > 100 µM | > 100 µM | > 100 µM | > 100 µM | – | – | – | – | – | – | – | – | – | – | – |
| COc1cc2c3c(c4cc(OC)c(OC)cc4c2cc1OC)CN1CCC[C@H]1C3 | 0.435 µM and 2.13 µM | 2.37 µM and 0.393 µM | – | 0.481 µM and 0.926 µM | – | – | 0.681 µM | – | > 29.2 µM | 0.0849 µM and 0.657 µM | – | – | – | – | 0.0906 µM and < 0.0175 µM | 0.0607 µM and < 0.01 µM | 0.0142 µM | – | – |
| N#Cc1c(N)oc2cc3c(C#N)c(N)oc3cc12 | > 100 µM | > 100 µM | > 100 µM | > 100 µM | > 100 µM | > 100 µM | > 100 µM | > 100 µM | – | – | – | – | – | – | – | – | – | – | – |
| CC[C@H](C)[C@H](NC(=O)CN(C)C)C(=O)N(C)[C@H](C[C@@H](OC(C)=O)c1nc(C(=O)NC23C4C5C2C2C3C4C52C(=O)OC)cs1)C(C)C (some centres not stated) | > 11.4 µM | > 33.2 µM | 6.75 µM | > 33.2 µM | > 33.2 µM | – | > 33.2 µM | – | > 33.2 µM | > 20.1 µM | 0.176 µM | 2.25 µM | 0.431 µM | – | 0.115 µM | 0.299 µM | 0.668 µM | 7.13 µM | > 10.4 µM |
| CCCCCn1sc(=O)n(Cc2ccc(CNC(=O)C(C)c3ccc(CC(C)C)cc3)cc2)c1=O (configuration not stated) | 2.1 µM | 1.73 µM | 2.96 µM | 1.92 µM | 2.96 µM | – | 3.19 µM | – | 4.36 µM | 2.23 µM | 1.56 µM | 0.498 µM | 0.972 µM | – | 0.353 µM | 1.61 µM | 1.52 µM | 0.562 µM | 1.56 µM |
